Measurements published in patent US20020146741A1, “Processes for receptpor screening” (priority 2000, published 2002).
pKi: −log10 of the molar value.

Tests used:
[1] = molecular target: T1, GR (Homo sapiens, UniProt P04150); assay: FP-based competitive ligand binding assay; design: GR was produced as a full length protein in insect cells and partially purified using ion exchange chromatography; made in house; host or cells: insect cells (baculovirus); conditions: for pKi: GR 4 nM, fluorescein-dexamethasone probe, 1-hour incubation at room temperature; for RBA: relative binding affinity, dexamethasone = 100
T1 sequence (P04150 1-777): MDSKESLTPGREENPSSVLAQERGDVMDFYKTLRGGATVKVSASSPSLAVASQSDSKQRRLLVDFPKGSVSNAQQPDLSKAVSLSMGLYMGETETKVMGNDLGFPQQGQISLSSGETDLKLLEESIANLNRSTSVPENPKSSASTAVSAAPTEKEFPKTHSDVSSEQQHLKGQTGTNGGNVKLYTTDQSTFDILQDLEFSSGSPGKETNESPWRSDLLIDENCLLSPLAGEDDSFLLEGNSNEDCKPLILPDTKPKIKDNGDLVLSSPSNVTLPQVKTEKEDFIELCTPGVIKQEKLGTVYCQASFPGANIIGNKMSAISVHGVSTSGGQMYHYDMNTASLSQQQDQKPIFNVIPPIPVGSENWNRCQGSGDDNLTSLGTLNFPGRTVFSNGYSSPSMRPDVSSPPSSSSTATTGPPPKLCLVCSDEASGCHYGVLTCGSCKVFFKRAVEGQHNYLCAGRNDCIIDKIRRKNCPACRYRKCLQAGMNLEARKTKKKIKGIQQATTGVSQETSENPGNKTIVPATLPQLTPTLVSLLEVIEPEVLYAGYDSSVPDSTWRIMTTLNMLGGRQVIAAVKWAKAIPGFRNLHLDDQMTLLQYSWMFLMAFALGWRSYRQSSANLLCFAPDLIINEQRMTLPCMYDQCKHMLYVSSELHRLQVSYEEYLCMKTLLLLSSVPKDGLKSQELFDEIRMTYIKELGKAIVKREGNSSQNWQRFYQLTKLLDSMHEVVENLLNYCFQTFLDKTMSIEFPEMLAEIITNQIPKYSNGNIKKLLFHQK
Protocol: FIG. 3A and B are graphs showing FP-based competition assays with recombinant GR (A) and PR-LBD (B). Serial dilutions of test steroids were prepared. […] Final incubation conditions were similar to those described in FIG. 3. The final concentration of GR used was 4 nM, and for PR-LBD it was 8 nM. After a 1-hour incubation at room temperature, the fluorescence polarization of each well was read, using wells lacking fluor as blanks.
The other criteria used for validating a fluorescent steroid conjugate is the ability of known receptor ligands to compete with the fluor for binding to the receptor.

[2] = molecular target: T1, GR; conditions: literature RBA, dexamethasone = 100; cited from earlier work

Row | pKi [1] | RBA [1] | SMILES | Literature Value [2]
1 | 9.05 |  | CC1(C)O[C@@H]2C[C@H]3[C@@H]4CCC5=CC(=O)C=C[C@]5(C)[C@@]4(F)[C@@H](O)C[C@]3(C)[C@]2(C(=O)CO)O1 [Triamcinolone acetonide] | 
2 | 8.72 | 40 | CC(=O)OCC(=O)[C@@]12OC3(CCCC3)O[C@@H]1C[C@H]1[C@@H]3CCC4=CC(=O)C=C[C@]4(C)[C@@]3(F)[C@@H](O)C[C@@]12C [Amcinonide] | 
3 | 9.00 | 73 | CC1(C)O[C@@H]2C[C@H]3[C@@H]4C[C@H](F)C5=CC(=O)C=C[C@]5(C)[C@H]4[C@@H](O)C[C@]3(C)[C@]2(C(=O)CO)O1 [Flunisolide] | 100
4 | 8.36 | 17 | CC(=O)OCC(=O)[C@@]12OC(C)(C)O[C@@H]1C[C@H]1[C@@H]3C[C@H](F)C4=CC(=O)C=C[C@]4(C)[C@@]3(F)[C@@H](O)C[C@@]12C [Fluocinonide] | 

Row | SMILES | pKi [1] | RBA [1] | Literature Value [2]
5 | C[C@]12CCC(=O)C=C1CC[C@@H]1[C@@H]2[C@@H](O)C[C@@]2(C)[C@H]1CC[C@]2(O)C(=O)CO [Cortisol] |  | 24 | 33
